In ChEMBL document CHEMBL1201862, “PubChem BioAssay data set” (2004):
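Protocol summary: plate cells (96-well), add compound at 5 concentrations, incubate 48 h, interpolate endpoints linearly. GI50 is the concentration that inhibits growth by half.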 The source made the active and inactive calls. Rule as the data show it: active = GI50 up to about 1.1 µM and inactive = higher.

What was measured:
Experiment in all cases: inhibition of tumour cell growth, NCI panel, 48 h
MDA-N = test system: MDA-N
KM12 = test system: KM12
OVCAR-5 = test system: OVCAR-5
SK-MEL-2 = test system: SK-MEL-2
RXF 393 = test system: RXF 393
786-0 = test system: 786-0
HOP-92 = test system: HOP-92
HOP-62 = test system: HOP-62
MCF7 = test system: MCF7
OVCAR-8 = test system: OVCAR-8
TK-10 = test system: TK-10
BT-549 = test system: BT-549
NCI-H226 = test system: NCI-H226
SK-OV-3 = test system: SK-OV-3
NCI-H460 = test system: NCI-H460
T47D = test system: T47D
ACHN = test system: ACHN
CCRF-CEM = test system: CCRF-CEM

Row | Compound | GI50 (MDA-N) | GI50 (KM12) | GI50 (OVCAR-5) | GI50 (SK-MEL-2) | GI50 (RXF 393) | GI50 (786-0) | GI50 (HOP-92) | GI50 (HOP-62) | GI50 (MCF7) | GI50 (OVCAR-8) | GI50 (TK-10) | GI50 (BT-549) | GI50 (NCI-H226) | GI50 (SK-OV-3) | GI50 (NCI-H460) | GI50 (T47D) | GI50 (ACHN) | GI50 (CCRF-CEM)
1 | COC1(OC)CCc2c(sc3ncnc(Nc4cccc(Br)c4)c23)C1 | 35.4 µM (inactive) | 33.4 µM (inactive) | 20.7 µM (inactive) | > 100 µM (inactive) | 22.9 µM (inactive) | 25.1 µM (inactive) | 30.5 µM (inactive) | 74.5 µM (inactive) | 40.5 µM (inactive) | 34.6 µM (inactive) | 10.6 µM (inactive) | 94.2 µM (inactive) | 43.8 µM (inactive) | > 100 µM (inactive) | 40.7 µM (inactive) | 23.1 µM (inactive) | 5.71 µM (inactive) | –
2 | N=C(N)N/N=C(/c1ccccc1)c1ccc(O)cc1O | 11.7 µM (inactive) | 30.5 µM (inactive) | 33 µM (inactive) | 45.7 µM (inactive) | 45 µM (inactive) | 29.2 µM (inactive) | 36.6 µM (inactive) | 32 µM (inactive) | 30.7 µM (inactive) | 24.6 µM (inactive) | 31.6 µM (inactive) | 37.5 µM (inactive) | 29.9 µM (inactive) | 33.4 µM (inactive) | 27.4 µM (inactive) | 45.3 µM (inactive) | 45.9 µM (inactive) | –
3 | Cc1c(C)c2c(c(N)c1C#N)C(=O)N(CCN1CCNCC1)C2=O | 40.9 µM (inactive) | 45.4 µM (inactive) | 31.1 µM (inactive) | 35.9 µM (inactive) | 22.4 µM (inactive) | 25.4 µM (inactive) | 25.2 µM (inactive) | – | 34.8 µM (inactive) | 30.8 µM (inactive) | 36.7 µM (inactive) | 35.2 µM (inactive) | 29.1 µM (inactive) | – | 29.9 µM (inactive) | 36.4 µM (inactive) | 25.6 µM (inactive) | 33.4 µM (inactive)
4 | Cc1ccc([N+](=O)[O-])cc1S(=O)(=O)Nc1ccc(C2=NNC(c3ccccc3)C2)cc1 (centres undefined) | 23.9 µM (inactive) | 13.4 µM (inactive) | 53.2 µM (inactive) | 18.5 µM (inactive) | 8.36 µM (inactive) | 20.8 µM (inactive) | 33.3 µM (inactive) | 11.5 µM (inactive) | 14.9 µM (inactive) | 26.2 µM (inactive) | 19.8 µM (inactive) | 18.4 µM (inactive) | 32.9 µM (inactive) | 15.5 µM (inactive) | 15.1 µM (inactive) | 4.23 µM (inactive) | 16.3 µM (inactive) | –
5 | O=C(c1ccccc1)c1ccc2c(c1)nc1n2C(c2c(Cl)cccc2Cl)SC1 (centres undefined) | 41.7 µM (inactive) | 19.9 µM (inactive) | > 100 µM (inactive) | > 100 µM (inactive) | 79.8 µM (inactive) | 72.6 µM (inactive) | 69 µM (inactive) | > 100 µM (inactive) | 39.4 µM (inactive) | 63.7 µM (inactive) | > 100 µM (inactive) | 77.1 µM (inactive) | > 100 µM (inactive) | > 100 µM (inactive) | 40.2 µM (inactive) | 14.7 µM (inactive) | 71.6 µM (inactive) | –
6 | Clc1ccc(C(OCn2ccnc2)c2nc3ccccc3[nH]2)c(Cl)c1 (centres undefined) | 37.5 µM (inactive) | > 100 µM (inactive) | > 100 µM (inactive) | 42.7 µM (inactive) | – | 39 µM (inactive) | 0.312 µM (active) | 92.9 µM (inactive) | 38.2 µM (inactive) | 52.8 µM (inactive) | 31.7 µM (inactive) | 26.1 µM (inactive) | – | – | 24.5 µM (inactive) | 39.1 µM (inactive) | 26.4 µM (inactive) | 38.6 µM (inactive)
7 | COc1ccc(CCN2C(=O)CC34C=CC(CC3C2=O)O4)cc1OC (centres undefined) | > 100 µM (inactive) | > 100 µM (inactive) | > 100 µM (inactive) | > 100 µM (inactive) | – | > 100 µM (inactive) | 97.5 µM (inactive) | > 100 µM (inactive) | > 100 µM (inactive) | > 100 µM (inactive) | > 100 µM (inactive) | > 100 µM (inactive) | – | > 100 µM (inactive) | – | > 100 µM (inactive) | > 100 µM (inactive) | > 100 µM (inactive)
8 | N#CCOc1cccc(C2(N3CC=CCC3)CCCCC2)c1 | > 100 µM (inactive) | > 100 µM (inactive) | > 100 µM (inactive) | > 100 µM (inactive) | – | > 100 µM (inactive) | – | > 100 µM (inactive) | > 100 µM (inactive) | 86.9 µM (inactive) | > 100 µM (inactive) | > 100 µM (inactive) | > 100 µM (inactive) | > 100 µM (inactive) | – | > 100 µM (inactive) | > 100 µM (inactive) | 42.3 µM (inactive)
